Test results reported in article PMC11079024, “Identification of a family of species-selective complex I inhibitors as potential anthelmintics” (Nature Communications, 2024).
Several values for one entry are separate records, joined by “and”; a condition that tells them apart may be missing. Equal values may be shown once. Read-outs that look alike come from different tables or passages of the source.

What was measured:
adult H. polygyrus = test: microbe, parasite or virus in culture; assay type: cell-based, Heligmosomoides polygyrus; conditions: anaerobic, 24 hours after treatment; for killing at 10 µM: Heligmosomoides polygyrus, 24 h, adult H. polygyrus, affected = score equal to or lower than 1.5, read-out: Percent Worms Affected; for # of Worms Affected: worms with score equal to or lower than 1.5
How it was run: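 Adult H. polygyrus exposed in vitro to 10 µM compound for 24 h at 37 °C, anaerobic (85% N2, 10% CO2, 5% H2) or aerobic. Viability scored manually 0 (dead) to 3 (motile); worms scoring ≤1.5 counted as affected, per each of two biological replicates.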

[1] = system: anthelmintic/nematicide-resistant C. elegans mutant strains; test: microbe, parasite or virus in culture; conditions: for LC50: Caenorhabditis elegans; for dose response data: mev-1 (tr355)

For `Cc1nc2ccccc2n1Cc1ccc(Cl)cc1` [STK697993], the killing at 10 µM (adult H. polygyrus; replicate 1) was 100%, the killing at 10 µM (adult H. polygyrus; replicate 2) was 33% and the “# of Worms Affected” value (adult H. polygyrus; replicate 1) was 7. For the same compound, the “# of Worms Affected” value (adult H. polygyrus; replicate 2) was 2, the LC50 ([1]; read-out: C. elegans Development & Viability LC50, acr-23(ok2804)) was 34.9 µM and the LC50 ([1]; read-out: C. elegans Development & Viability LC50, avr-14(ad1302), avr-15(ad1051), glc-1(pk54)) was 28.3 µM. It also gave an LC50 ([1]; read-out: C. elegans Development & Viability LC50, ben-1(e1880)) of 38.6 µM, an LC50 ([1]; read-out: C. elegans Development & Viability LC50, bre-1(ye4)) of 31.1 µM and an LC50 ([1]; read-out: C. elegans Development & Viability LC50, mev-1(tr355)) of 28.5 µM. The LC50 ([1]; read-out: C. elegans Development & Viability LC50, slo-1(js379)) was 16.1 µM, the LC50 ([1]; read-out: C. elegans Development & Viability LC50, unc-29(e193)) was 22.9 µM and the dose response data ([1]; concentration step 1 of 13 (c108)) was 0.989 and 1.000. For the same compound, the dose response data ([1]; concentration step 4 of 13 (c111)) was 0.994 and 1.000.
